For orientation: IC50 means the concentration that inhibits the measured activity by half.

SMILES strings stand for the structures. Some results are limits rather than exact numbers.

Among the data in patent US20090258873A1, “Novel tetrahydropyridothiophenes” (priority 2005, published 2009) are IC50 values, retold here.

In assay [1] the test system is RKO (RKOp27) human colon adenocarcinoma cells. In words: Alamar Blue cell viability assay, anti-proliferative/cytotoxic activity on proliferating RKOp27 cells. It is filed as cell-based. The following applies: no Ponasterone A, 72 hours incubation, read-out: IC50 RKO p27 uninduced (proliferating). How it is done: The anti-proliferative I cytotoxic activity of the compounds described herein, can be tested on subclones of RKO (RKOp27) human colon adenocarcinoma cells (Schmidt et al., Oncogene 19, 2423-2429; 2000) using the Alamar Blue cell viability assay (described in O'Brien et al. Eur J Biochem 267, 5421-5426, 2000). The compounds are dissolved as 20 mM solutions in dimethylsulfoxide (DMSO) and subsequently diluted in semi-logarithmic steps. DMSO dilutions are further diluted 1:100 into Dulbecco's modified Eagle's medium (DMEM) containing 10% fetal calf serum to a final concentration twice as much as the final concentration in the test. RKO subclones are seeded into 96 well flat bottom plates at a density of 5000 cells per well in a volume of 50 μl per well. 24 hours after seeding the 50 μl each of the compound dilutions in DMEM medium are added into each well of the 96 Well plate. Each compound dilution is tested as quadruplicates. Wells containing untreated control cells are filled with 50 μl DMEM medium containing 1% DMSO. The cells are then incubated with the substances for 72 hours at 37° C. in a hunified atmosphere containing 5% carbon dioxide. To determine the viability of the cells, 10 μl of an Alamar Blue solution (Biosource) are added and the fluorescence is measured at an extinction of 544 nm and an emission of 590 nm. For the calculation of the cell viability the emission value from untreated cells is set as 100% viability and the emission rates of treated cells are set in relation to the values of untreated cells. Viabilities are expressed as % values.
The corresponding IC50 values of the compounds for anti-proliferative/cytotoxic activity are determined from the concentration-effect curves.
Representative IC50 values for anti-proliferation/cytotoxicity determined in the mentioned assay follow from the following table A, in which the numbers of the compounds correspond to the numbers of the examples.
(The colour change of resazurin is a common sign of viable cells or microbes.)

In assay [2] the test system is RKO colon adenocarcinoma cells (RKOp27) arrested by ectopic p27Kip1. Kind of assay: Alamar Blue cell viability assay on RKOp27 cells arrested by p27Kip1 expression induced with Ponasterone A (cell cycle specific mode of action). It is filed as cell-based. The following applies: Homo sapiens, RKOp27 cells arrested by p27Kip1 induced with 10 μM Ponasterone A, 72 hours incubation, read-out: IC50 RKO p27 induced (arrested). Here is the method:
To determine the cell cycle specific mode of action, subclones of RKO colon adenocarcinoma cells (RKOp27 or RKOp21 as described by Schmidt et al. in Oncogene 19, 2423-2429; 2000) are seeded into 96 well flat bottom plates at a density of 15000 cells per well in a volume of 50 μl per well in DMEM growth medium with 10% FCS containing 10 μM Ponasterone A. 24 hours after seeding the 50 μl each of the compound dilutions in DMEM medium are added into each well of the 96 Well plate. Each compound dilution is tested as quadruplicates. Wells containing untreated control cells are filled with 50 μl DMEM medium containing 1% DMSO. The cells are then incubated with the substances for 72 hours at 37° C. in a humidified atmosphere containing 5% carbon dioxide. To determine the viability of the cells, 10 μl of an Alamar Blue solution (Biosource) are added and the fluorescence was measured at an extinction of 544 nm and an emission of 590 nm. For the calculation of the cell viability the emission value from untreated cells is set as 100% viability and the emission rates of treated cells are set in relation to the values of untreated cells. Viabilities are expressed as % values. Viability is compared of proliferating cells grown in the absence of the inducer Ponasterone A, versus viability of cells arrested by the expression of ectopic p27Kip1 induced by Ponasterone A.

As to `COCC(=O)N1CCc2c(sc(NC(=O)CCc3ccco3)c2C#N)C1` [Example 13, N-[3-Cyano-6-(2-methoxy-ethanoyl)-4,5,6,7-tetrahydro-thieno[2,3-c]pyridin-2-yl]-3-furan-2-yl-propionamide], the IC50 in assay [1] was at most 300 nM; in assay [2], above 100000 nM.

For the compound `CCCC(=O)N1CCc2c(sc(NC(=O)CCc3ccco3)c2C#N)C1` [Example 14, N-(6-Butyryl-3-cyano-4,5,6,7-tetrahydro-thieno[2,3-c]pyridin-2-yl)-3-furan-2-yl-propionamide], the IC50 is at most 300 nM in assay [1] and above 100000 nM in assay [2].

`N#Cc1c(NC(=O)CCc2ccco2)sc2c1CCN(C(=O)CCn1ccnc1)C2` [Example 15, N-[3-Cyano-6-(3-Imidazo-1-yl-propanoyl)-4,5,6,7-tetrahydro-thieno[2,3-c]pyridin-2-yl]-3-furan-2-yl-propionamide]: the 50% inhibitory concentration (IC50) in assay [1] was at most 300 nM; in assay [2], above 100000 nM.

For the compound `N#Cc1c(NC(=O)CCc2ccccc2)sc2c1CCN(C(=O)CCn1ccnc1)C2` [Example 16, N-[3-Cyano-6-(3-imidazol-1-yl-propanoyl)-4,5,6,7-tetrahydro-thieno[2,3-c]pyridin-2-yl]-3-phenyl-propionamide], the IC50 in assay [1] was at most 300 nM; in assay [2], above 100000 nM.

For `CN1CCN(CCC(=O)N2CCc3c(sc(NC(=O)CCc4ccccc4)c3C#N)C2)CC1` [Example 17, N-[3-Cyano-6-[3-(4-methyl-piperazin-1-yl)-propanoyl]-4,5,6,7-tetrahydro-thieno[2,3-c]pyridin-2-yl]-3-phenyl-propionamide], the values for the IC50 in assay [1] and in assay [2] were 300 to 2000 nM and at least 40000 nM, respectively.

As to `N#Cc1c(NC(=O)CCc2ccccc2)sc2c1CCN(C(=O)CCN1CCOCC1)C2` [Example 18, N-[3-Cyano-6-(3-morpholin-4-yl-propanoyl)-4,5,6,7-tetrahydro-thieno[2,3-c]pyridin-2-yl]-3-phenyl-propionamide], the figures for the IC50 in assay [1] and in assay [2] were 300 to 2000 nM and above 100000 nM, respectively.

Turning to `N#Cc1c(NC(=O)CCc2ccccc2)sc2c1CCN(C(=O)Cn1ccnc1)C2` [Example 19, N-[3-Cyano-6-(2-imidazol-1-yl-ethanoyl)-4,5,6,7-tetrahydro-thieno[2,3-c]pyridin-2-yl]-3-phenyl-propionamide], the results for the IC50 in assay [1] and in assay [2] were 300 to 2000 nM and above 100000 nM, respectively.

Take `N#Cc1c(NC(=O)CCc2ccccc2)sc2c1CCN(C(=O)Cc1ccncc1)C2` [Example 20, N-[3-Cyano-6-(2-pyridin-4-yl-ethanoyl)-4,5,6,7-tetrahydro[2,3-c]pyridin-2-yl]-3-phenyl-propionamide]: the values for the IC50 in assay [1] and in assay [2] were at most 300 nM and above 100000 nM, respectively.

Regarding `Cc1nc2ccccc2n1CCC(=O)N1CCc2c(sc(NC(=O)CCc3ccccc3)c2C#N)C1` [Example 21], the IC50 is 300 to 2000 nM in assay [1] and above 100000 nM in assay [2].

Regarding `CCCC(=O)N1CCc2c(sc(NC(=O)CCc3ccccc3)c2C#N)C1` [Example 28, N-(6-Butyryl-3-cyano-4,5,6,7-tetrahydro-thieno[2,3-c]pyridin-2-yl)-3-phenyl-propionamide], the IC50 in assay [1] was at most 300 nM; in assay [2] it was above 100000 nM.

As for `N#Cc1c(NC(=O)CCc2ccccc2)sc2c1CCN(C(=O)CCc1ccccn1)C2` [Example 30, N-[3-Cyano-6-(3-pyridin-2-yl-propanoyl)-4,5,6,7-tetrahydro-thieno[2,3-c]pyridin-2-yl]-3-phenyl-propionamide], the results for the IC50 in assay [1] and in assay [2] were at most 300 nM and above 100000 nM, respectively.

For the compound `Cc1nccn1CCC(=O)N1CCc2c(sc(NC(=O)CCc3ccccc3)c2C#N)C1` [Example 33, N-{3-Cyano-6-[3-(2-methyl-imidazol-1-yl)propanoyl]-4,5,6,7-tetrahydro-thieno[2,3-c]pyridin-2-yl}-3-phenyl-propionamide], the IC50 was 300 to 2000 nM in assay [1] and at least 10000 nM in assay [2].

On to `Cn1ccnc1CCC(=O)N1CCc2c(sc(NC(=O)CCc3ccccc3)c2C#N)C1` [Example 35, N-{3-Cyano-4-[3-(1-methyl-1H-imidazo-2-yl)-propanoyl]-4,5,6,7-tetrahydro-thieno[2,3-c]pyridin-2-yl}-3-phenyl-propionamide], for which the results for the IC50 in assay [1] and in assay [2] were at most 300 nM and at least 10000 nM, respectively.

On to `Cc1nccn1CC(=O)N1CCc2c(sc(NC(=O)CCc3ccccc3)c2C#N)C1` [Example 38, N-{3-Cyano-6-[2-(2-methyl-imidazol-1-yl)-ethanoyl]-4,5,6,7-tetrahydro-thieno[2,3-c]pyridin-2-yl}-3-phenyl-propionamide], for which the IC50 in assay [1] was at most 300 nM; in assay [2] it was above 100000 nM.

Turning to `N#Cc1c(NC(=O)CCc2ccccc2)sc2c1CCN(C(=O)CCc1ccncc1)C2` [Example 39, N-[3-Cyano-6-(3-pyridin-4-yl-propanoyl)-4,5,6,7-tetrahydro-thieno[2,3-c]pyridin-2-yl]-3-phenyl-propionamide], the IC50 in assay [1] is at most 300 nM; in assay [2], above 100000 nM.

`Cc1cn(CC(=O)N2CCc3c(sc(NC(=O)CCc4ccccc4)c3C#N)C2)cn1` [Example 41, N-{3-Cyano-6-[2-(4-methyl-imidazol-1-yl)-ethanoyl]-4,5,6,7-tetrahydro-thieno[2,3-c]pyridin-2-yl}-3-phenyl-propionamide]: the IC50 was at most 300 nM in assay [1] and above 100000 nM in assay [2].

Regarding `Cc1cn(CC(=O)N2CCc3c(sc(NC(=O)CCc4ccccc4)c3C#N)C2)c(C)n1` [Example 43, N-{3-Cyano 6-[2-(2,4-dimethyl-imidazol-1-yl)-ethanoyl]-4,5,6,7-tetrahydro-thieno[2,3-c]pyridin-2-yl}-3-phenyl-propionamide], the IC50 was 300 to 2000 nM in assay [1] and at least 40000 nM in assay [2].

As to `Cc1cn(CCC(=O)N2CCc3c(sc(NC(=O)CCc4ccccc4)c3C#N)C2)cn1` [Example 45, N-[3-Cyano-6-[3-(4-methyl-imidazol-1-yl)-propanoyl]-4,5,6,7-tetrahydro-thieno[2,3-c]pyridin-2-yl]-3-phenyl-propionamide], the values for the IC50 in assay [1] and in assay [2] were 300 to 2000 nM and at least 10000 nM, respectively.

For `N#Cc1c(NC(=O)CCC2CCCCC2)sc2c1CCN(C(=O)Cc1ccccn1)C2` [Example 53, N-[3-Cyano-6-(2-pyridin-2-yl-ethanoyl)-4,5,6,7-tetrahydro-thieno[2,3-c]pyridin-2-yl]-3-cyclohexyl-propionamide], the IC50 in assay [1] is at most 300 nM; in assay [2], above 100000 nM.

For the compound `N#Cc1c(NC(=O)CCC2CCCCC2)sc2c1CCN(C(=O)CCn1ccnc1)C2` [Example 58], the results for the IC50 in assay [1] and in assay [2] were 300 to 2000 nM and above 100000 nM, respectively.
